Experimental data: PMC3790881, “Identification of Leptospira interrogans Phospholipase C as a Novel Virulence Factor Responsible for Intracellular Free Calcium Ion Elevation during Macrophage Death” (PLoS ONE, 2013)

Biological target: T1, rL-PI-PLC (recombinant LB361 gene product; L-PI-PLC) (Leptospira interrogans, UniProt Q8EX56)
T1 construct: gene LB_361; entire LB361 gene (amplicon 384 bp) in pET42a, expressed in E. coli BL21DE3, Ni-NTA purified
Assay: IP3 fluorescence polarization assay, Lineweaver-Burk plot
Assay type: biochemical
Details: pH 7.0, 37 °C, 50 mM HEPES, 100 mM KCl, 1.9 mM CaCl2, 2 mM EGTA, 0.1% sodium deoxycholate; acyl chains of PIP2 not told

T1 sequence (Q8EX56 entry or part of it): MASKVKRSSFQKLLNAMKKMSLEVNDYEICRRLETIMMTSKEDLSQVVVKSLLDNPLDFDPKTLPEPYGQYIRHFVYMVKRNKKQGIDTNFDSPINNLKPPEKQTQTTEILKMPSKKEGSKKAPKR

PIP2
Km: 199 µM
